Laboratory results from patent US12486301B2, “8-fluoro-4-alkylumbelliferyl α-D-glucopyranoside, biological sterilization indicator including the same and its use in a method of determining efficacy of a sterilization process” (Solventum Intellectual Properties Company, priority 2019, dated 2025).

Experiments:
[1] = tested on: Geobacillus stearothermophilus spores (ATCC 7953); experiment: Fluorescence from enzyme substrates incubated with Geobacillus stearothermophilus spores in culture media; format: cell-based; settings: substrate 0.1 mg/mL, 60° C.
[2] = tested on: Geobacillus stearothermophilus spores (ATCC 7953); experiment: as above; format: cell-based; settings: 5×10^3 spores, substrate 0.1 mg/mL, 60° C.; for MEASURED FLUORESCENCE, RFU 10 sec: 360 nm excitation/450 nm emission
Protocol: Culture media was prepared by dissolving 5 g/L peptone C (BD 211921) and 12 g/L phytone peptone (BD BBL 211906) in deionized water. The pH was adjusted with 1 N NaOH or 0.1 N HCl, the media brought to volume, and then filter sterilized with a 0.22 micron PES filter. Stock solutions ([…]) of 8′-fluoro-4′-methylumbelliferyl-α-D-glucopyranoside, 6′-fluoro-4′-methylumbelliferyl-α-D-glucopyranoside, and 4-methylumbelliferyl-α-D-glucopyranoside were prepared in DMSO. The aforementioned substrates were added to culture media at a final concentration of 0.1 mg/ml and media were then 0.22 μm filter sterilized.
Culture media (pH 6) containing 8′-fluoro-4′-methylumbelliferyl-[…]-D-glucopyranoside (0.1 mg/mL) was added to two wells (100 microliters per well) of a black 96-well microtiter plate with (NUNC #165301, Thermo Fisher Scientific). A 5 microliter aqueous suspension containing 5×10^3 Geobacillus stearothermophilus spores (ATCC 7953) was added to each well of the microtiter plate. Next, the contents of each well were mixed using a multiple aspiration/delivery sequence with the pipet. […] The top of the plate was covered with an optically clear sealing film (product #4311971, Applied Biosystems Corporation, Foster City, California). The plate was warmed at 60° C. and shaken in a linear direction. Fluorescence readings (360 nm excitation/450 nm emission at 50% gain) were taken from the top of the plate. A reading was taken at an initial time point of 10 seconds and then at +1 minute intervals thereafter. A Synergy Neo2 fluorescence plate reader (BioTek Company, Winooski, Vermont) was used. In Table 1, the mean fluorescence values detected (RFU) at times of 10 seconds, +5 minutes, +10 minutes, and +30 minutes are reported. The mean fluorescence values detected for the control wells were 614 RFU at 10 seconds; 547 RFU at +5 minutes; 504 RFU at +10 minutes, and 438 RFU at +30 minutes.
Culture media (pH 7) containing 8′-fluoro-4′-methylumbelliferyl-[…]-D-glucopyranoside (0.1 mg/mL) was added to two wells (100 microliters per well) of a black 96-well microtiter plate with (NUNC #165301, Thermo Fisher Scientific). A 5 microliter aqueous suspension containing 5×10^3 Geobacillus stearothermophilus spores (ATCC 7953) was added to each well of the microtiter plate. Next, the contents of each well were mixed using a multiple aspiration/delivery sequence with the pipet. […] The top of the plate was covered with an optically clear sealing film (product #4311971, Applied Biosystems Corporation). The plate was warmed at 60° C. and shaken in a linear direction. Fluorescence readings (360 nm excitation/450 nm emission at 50% gain) were taken from the top of the plate. A reading was taken at an initial time point of 10 seconds and then at +1 minute intervals thereafter. A Synergy Neo2 fluorescence plate reader (BioTek Company) was used. In Table 2, the mean fluorescence values detected (RFU) at times of 10 seconds, +5 minutes, +10 minutes, and +30 minutes are reported. The mean fluorescence values detected for the control wells were 601 RFU at 10 seconds; 533 RFU at +5 minutes; 495 RFU at +10 minutes, and 430 RFU at +30 minutes.
Culture media (pH 8) containing 8′-fluoro-4′-methylumbelliferyl-[…]-D-glucopyranoside (0.1 mg/mL) was added to two wells (100 microliters per well) of a black 96-well microtiter plate with (NUNC #165301, Thermo Fisher Scientific). A 5 microliter aqueous suspension containing 5×10^3 Geobacillus stearothermophilus spores (ATCC 7953) was added to each well of the microtiter plate. Next, the contents of each well were mixed using a multiple aspiration/delivery sequence with the pipet. […] The top of the plate was covered with an optically clear sealing film (product #4311971, Applied Biosystems Corporation). The plate was warmed at 60° C. and shaken in a linear direction. Fluorescence readings (360 nm excitation/450 nm emission at 50% gain) were taken from the top of the plate. […]

[3] = pH 6 culture media, 5×10^3 spores
[4] = pH 6 culture media, 5×10^6 spores
[5] = pH 7 culture media, 5×10^3 spores
[6] = pH 7 culture media, 5×10^6 spores
[7] = pH 8 culture media, 5×10^3 spores
[8] = pH 8 culture media, 5×10^6 spores
[9] = pH 9 culture media, 5×10^3 spores
[10] = pH 9 culture media, 5×10^6 spores

| SMILES | MEASURED FLUORESCENCE, RFU +5 min [1, 3] | MEASURED FLUORESCENCE, RFU +30 min [1, 3] | MEASURED FLUORESCENCE, RFU 10 sec [1, 4] | MEASURED FLUORESCENCE, RFU +5 min [1, 4] | MEASURED FLUORESCENCE, RFU +10 min [1, 4] | MEASURED FLUORESCENCE, RFU +30 min [1, 4] | MEASURED FLUORESCENCE, RFU 10 sec [1, 5] | MEASURED FLUORESCENCE, RFU 10 sec [1, 6] | MEASURED FLUORESCENCE, RFU +5 min [1, 6] | MEASURED FLUORESCENCE, RFU +10 min [1, 6] | MEASURED FLUORESCENCE, RFU +30 min [1, 6] | MEASURED FLUORESCENCE, RFU 10 sec [1, 7] | MEASURED FLUORESCENCE, RFU +5 min [1, 7] | MEASURED FLUORESCENCE, RFU +10 min [1, 7] | MEASURED FLUORESCENCE, RFU 10 sec [1, 8] | MEASURED FLUORESCENCE, RFU +5 min [1, 8] | MEASURED FLUORESCENCE, RFU +10 min [1, 8] | MEASURED FLUORESCENCE, RFU +30 min [1, 8] | MEASURED FLUORESCENCE, RFU 10 sec [1, 9] | MEASURED FLUORESCENCE, RFU +5 min [1, 9] | further results |
| --- | --- | --- | --- | --- | --- | --- | --- | --- | --- | --- | --- | --- | --- | --- | --- | --- | --- | --- | --- | --- | --- |
| Cc1cc(=O)oc2cc(O[C@H]3O[C@H](CO)[C@@H](O)[C@H](O)[C@H]3O)c(F)cc12 [Example 6F-MUG, 6′-Fluoro-4′-methylumbelliferyl […]-D-glucopyranoside] | 1200 RFU | 6663 RFU | 53357 RFU | 60972 RFU | 58039 RFU | 55966 RFU | 879 RFU | 67489 RFU | 80834 RFU | 78888 RFU | 75469 RFU | 825 RFU | 878 RFU | 1204 RFU | 49967 RFU | 81623 RFU | 85491 RFU | 78890 RFU | 870 RFU | 833 RFU | MEASURED FLUORESCENCE, RFU +10 min [1, 9]: 892 RFU; MEASURED FLUORESCENCE, RFU +30 min [1, 9]: 2376 RFU; MEASURED FLUORESCENCE, RFU 10 sec [1, 10]: 22519 RFU; MEASURED FLUORESCENCE, RFU +5 min [1, 10]: 56806 RFU; MEASURED FLUORESCENCE, RFU +10 min [1, 10]: 78179 RFU; MEASURED FLUORESCENCE, RFU +30 min [1, 10]: 76196 RFU; MEASURED FLUORESCENCE, RFU 10 sec ([2]; pH 6 culture media): 886 RFU; MEASURED FLUORESCENCE, RFU +10 min ([2]; pH 6 culture media): 1903 RFU; MEASURED FLUORESCENCE, RFU +5 min ([2]; pH 7 culture media): 1130 RFU; MEASURED FLUORESCENCE, RFU +10 min ([2]; pH 7 culture media): 1855 RFU; MEASURED FLUORESCENCE, RFU +30 min ([2]; pH 7 culture media): 8708 RFU; MEASURED FLUORESCENCE, RFU +30 min ([2]; pH 8 culture media): 5638 RFU |
| Cc1cc(=O)oc2c(F)c(O[C@H]3O[C@H](CO)[C@@H](O)[C@H](O)[C@H]3O)ccc12 [Example 1, 8′-Fluoro-4′-methylumbelliferyl […]-D-glucopyranoside] | 1212 RFU | 5600 RFU | 30514 RFU | 34348 RFU | 32547 RFU | 30518 RFU | 886 RFU | 49649 RFU | 54906 RFU | 52619 RFU | 49458 RFU | 729 RFU | 971 RFU | 1655 RFU | 39958 RFU | 58746 RFU | 58909 RFU | 55069 RFU | 655 RFU | 663 RFU | MEASURED FLUORESCENCE, RFU +10 min [1, 9]: 831 RFU; MEASURED FLUORESCENCE, RFU +30 min [1, 9]: 2910 RFU; MEASURED FLUORESCENCE, RFU 10 sec [1, 10]: 15513 RFU; MEASURED FLUORESCENCE, RFU +5 min [1, 10]: 39862 RFU; MEASURED FLUORESCENCE, RFU +10 min [1, 10]: 55056 RFU; MEASURED FLUORESCENCE, RFU +30 min [1, 10]: 52276 RFU; MEASURED FLUORESCENCE, RFU 10 sec ([2]; pH 6 culture media): 806 RFU; MEASURED FLUORESCENCE, RFU +10 min ([2]; pH 6 culture media): 1909 RFU; MEASURED FLUORESCENCE, RFU +5 min ([2]; pH 7 culture media): 1474 RFU; MEASURED FLUORESCENCE, RFU +10 min ([2]; pH 7 culture media): 2681 RFU; MEASURED FLUORESCENCE, RFU +30 min ([2]; pH 7 culture media): 10190 RFU; MEASURED FLUORESCENCE, RFU +30 min ([2]; pH 8 culture media): 7477 RFU |
